Measured values reported in patent US9902702B2, “Spirocycloheptanes as inhibitors of rock” (BRISTOL-MYERS SQUIBB COMPANY, priority 2014, dated 2018).

Target: ROCK2 (Homo sapiens, UniProt O75116)
Assay: ROCK assay: phosphorylation of FITC peptide substrate, LABCHIP 3000 mobility shift
Format: biochemical
Conditions: 5 μM ATP, 1.5 μM peptide substrate; read-out: ROCK2 Activity (ROCK IC50 range)
In short: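 Rho kinase variant phosphorylates 1.5 μM FITC-AHA-AKRRRLSSLRA-OH with 5 μM ATP in 20 mM HEPES pH 7.5, 20 mM MgCl2, 0.015% Brij-35, 4 mM DTT, DMSO <2%. EDTA stops the reaction, and phospho and non-phospho peptides are resolved by LabChip 3000 mobility shift. IC50 from dose-response curve fit.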

Chain of ROCK2 (O75116 whole entry, species assumed): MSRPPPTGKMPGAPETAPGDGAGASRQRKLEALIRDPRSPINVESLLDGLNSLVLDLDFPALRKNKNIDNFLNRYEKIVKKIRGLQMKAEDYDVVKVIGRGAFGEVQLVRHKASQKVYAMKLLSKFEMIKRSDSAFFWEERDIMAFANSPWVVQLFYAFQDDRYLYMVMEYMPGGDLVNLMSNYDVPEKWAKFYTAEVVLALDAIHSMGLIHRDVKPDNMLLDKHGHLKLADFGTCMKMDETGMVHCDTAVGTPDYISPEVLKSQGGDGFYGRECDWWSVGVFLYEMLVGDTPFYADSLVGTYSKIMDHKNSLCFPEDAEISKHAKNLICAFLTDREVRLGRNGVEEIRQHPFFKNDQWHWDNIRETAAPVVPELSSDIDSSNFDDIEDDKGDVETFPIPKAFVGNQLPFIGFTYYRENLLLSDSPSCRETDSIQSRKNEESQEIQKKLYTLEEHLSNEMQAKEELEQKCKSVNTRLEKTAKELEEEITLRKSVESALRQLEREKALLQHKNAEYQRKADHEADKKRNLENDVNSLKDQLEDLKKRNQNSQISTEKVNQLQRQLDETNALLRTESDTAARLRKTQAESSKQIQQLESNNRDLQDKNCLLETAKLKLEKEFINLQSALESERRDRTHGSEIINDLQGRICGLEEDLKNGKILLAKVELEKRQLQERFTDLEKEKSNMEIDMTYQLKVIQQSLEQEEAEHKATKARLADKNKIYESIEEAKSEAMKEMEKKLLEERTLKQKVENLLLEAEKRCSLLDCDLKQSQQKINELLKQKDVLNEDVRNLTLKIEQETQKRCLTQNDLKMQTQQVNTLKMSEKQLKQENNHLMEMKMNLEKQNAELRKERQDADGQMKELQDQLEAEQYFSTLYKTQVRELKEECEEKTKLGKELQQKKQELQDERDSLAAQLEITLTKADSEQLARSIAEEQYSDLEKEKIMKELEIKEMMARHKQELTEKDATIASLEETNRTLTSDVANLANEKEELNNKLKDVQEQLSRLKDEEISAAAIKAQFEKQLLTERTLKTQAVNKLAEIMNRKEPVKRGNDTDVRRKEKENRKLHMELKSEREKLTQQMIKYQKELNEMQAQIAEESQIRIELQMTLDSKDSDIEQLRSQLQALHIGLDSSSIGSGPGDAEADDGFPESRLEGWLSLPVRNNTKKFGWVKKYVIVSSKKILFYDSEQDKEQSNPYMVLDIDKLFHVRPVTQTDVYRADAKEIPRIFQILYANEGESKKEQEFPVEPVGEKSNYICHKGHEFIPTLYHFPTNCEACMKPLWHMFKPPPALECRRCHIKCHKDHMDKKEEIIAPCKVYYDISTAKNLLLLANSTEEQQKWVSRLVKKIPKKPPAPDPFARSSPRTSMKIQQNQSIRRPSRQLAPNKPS

[H][C@]1(c2n[nH]c(=O)c3ccccc32)C[C@]2(C[C@@H](NC(=O)c3ccc(C#N)c(C)n3)C2)C1 (stereo partly drawn) [Example 371, 5-cyano-6-methyl-N-((aR)-6-(4-oxo-3,4-dihydrophthalazin-1-yl)spiro[3.3]heptan-2-yl)picolinamide] and [H][C@]1(c2n[nH]c(=O)c3ccccc32)C[C@]2(C[C@@H](NC(=O)c3ccc(Br)cn3)C2)C1 (stereo partly drawn) [Example 375, 5-bromo-N-((aR)-6-(4-oxo-3,4-dihydrophthalazin-1-yl)spiro[3.3]heptan-2-yl)picolinamide] fall in the same range of IC50: 15.1 to 100 nM for the first, 15.1 to 100 nM for the second.

First: [H][C@]1(c2n[nH]c(=O)c3ccccc32)C[C@]2(C[C@@H](NC(=O)c3[nH]c4c(OC)cccc4c3C)C2)C1 (stereo partly drawn) [Example 372, 7-methoxy-3-methyl-N-((aR)-6-(4-oxo-3,4-dihydrophthalazin-1-yl)spiro[3.3]heptan-2-yl)-1H-indole-2-carboxamide]
Second: [H][C@]1(c2n[nH]c(=O)c3ccccc32)C[C@]2(C[C@@H](NC(=O)c3cnc4cc(OC)ccn34)C2)C1 (stereo partly drawn) [Example 385, 7-methoxy-N-((aR)-6-(4-oxo-3,4-dihydrophthalazin-1-yl)spiro[3.3]heptan-2-yl)imidazo[1,2-a]pyridine-3-carboxamide]
The IC50 of the first is higher: 15.1 to 100 nM for the first, 0.2 to 2 nM for the second. The second is the more potent here.

[H][C@]1(c2n[nH]c(=O)c3ccccc32)C[C@]2(C[C@@H](NC(=O)c3ccc4c(cnn4C)c3)C2)C1 (stereo partly drawn) [Example 373, 1-methyl-N-((aR)-6-(4-oxo-3,4-dihydrophthalazin-1-yl)spiro[3.3]heptan-2-yl)-1H-indazole-5-carboxamide] and [H][C@]1(c2n[nH]c(=O)c3ccccc32)C[C@]2(C[C@@H](NC(=O)c3cn4ccc(Br)cc4n3)C2)C1 (stereo partly drawn) [Example 374, 7-bromo-N-((aR)-6-(4-oxo-3,4-dihydrophthalazin-1-yl)spiro[3.3]heptan-2-yl)imidazo[1,2-a]pyridine-2-carboxamide] fall in the same range of IC50: 15.1 to 100 nM for the first, 15.1 to 100 nM for the second.

First: [H][C@]1(c2n[nH]c(=O)c3ccccc32)C[C@]2(C[C@@H](NC(=O)c3cn4ccccc4n3)C2)C1 (stereo partly drawn) [Example 377, N-((aR)-6-(4-oxo-3,4-dihydrophthalazin-1-yl)spiro[3.3]heptan-2-yl)imidazo[1,2-a]pyridine-2-carboxamide]
Second: [H][C@]1(c2n[nH]c(=O)c3ccccc32)C[C@]2(C[C@@H](NC(=O)c3nnc4ccccn34)C2)C1 (stereo partly drawn) [Example 389, N-((aR)-6-(4-oxo-3,4-dihydrophthalazin-1-yl)spiro[3.3]heptan-2-yl)-[1,2,4]triazolo[4,3-a]pyridine-3-carboxamide]
The IC50 of the first is higher: 15.1 to 100 nM for the first, 5.1 to 15 nM for the second.

[H][C@]1(c2n[nH]c(=O)c3ccccc32)C[C@]2(C[C@@H](NC(=O)c3cnc4cc(N5CCN(C)CC5)ccn34)C2)C1 (stereo partly shown) [Example 378] and [H][C@]1(c2n[nH]c(=O)c3ccccc32)C[C@@]2(C[C@H](NC(=O)c3cnc4cc(N5CC[C@@H](F)C5)ccn34)C2)C1 (stereo partly drawn) [Example 393, 7-((R)-3-fluoropyrrolidin-1-yl)-N-((aR)-6-(4-oxo-3,4-dihydrophthalazin-1-yl)spiro[3.3]heptan-2-yl)imidazo[1,2-a]pyridine-3-carboxamide] fall in the same range of IC50: 0.2 to 2 nM for the first, 0.2 to 2 nM for the second.

First: [H][C@]1(c2n[nH]c(=O)c3ccccc32)C[C@]2(C[C@@H](NC(=O)c3cnc4cc(C#N)ccn34)C2)C1 (stereo partly drawn) [Example 379, 7-cyano-N-((aR)-6-(4-oxo-3,4-dihydrophthalazin-1-yl)spiro[3.3]heptan-2-yl)imidazo[1,2-a]pyridine-3-carboxamide]
Second: [H][C@]1(c2n[nH]c(=O)c3ccccc32)C[C@]2(C[C@@H](NC(=O)c3cnc4cc(F)ccn34)C2)C1 (stereo partly drawn) [Example 387, 7-fluoro-N-((aR)-6-(4-oxo-3,4-dihydrophthalazin-1-yl)spiro[3.3]heptan-2-yl)imidazo[1,2-a]pyridine-3-carboxamide]
The IC50 of the first is higher: 5.1 to 15 nM for the first, 2.01 to 5 nM for the second. The second is the more potent here.

Compared with [H][C@]1(c2n[nH]c(=O)c3ccccc32)C[C@]2(C[C@@H](NC(=O)c3cnc4c(C#N)cccn34)C2)C1 (stereo partly drawn) [Example 380, 8-cyano-N-((aR)-6-(4-oxo-3,4-dihydrophthalazin-1-yl)spiro[3.3]heptan-2-yl)imidazo[1,2-a]pyridine-3-carboxamide], [H][C@]1(c2n[nH]c(=O)c3ccccc32)C[C@]2(C[C@@H](NC(=O)c3cnc4c(Cl)cccn34)C2)C1 (stereo partly drawn) [Example 382, 8-chloro-N-((aR)-6-(4-oxo-3,4-dihydrophthalazin-1-yl)spiro[3.3]heptan-2-yl)imidazo[1,2-a]pyridine-3-carboxamide] is lower in IC50: 5.1 to 15 nM for the first, 2.01 to 5 nM for the second. The second is the more potent here.

First: [H][C@]1(c2n[nH]c(=O)c3ccccc32)C[C@]2(C[C@@H](NC(=O)c3cnc4c(C(F)(F)F)cccn34)C2)C1 (stereo partly drawn) [Example 381, N-((aR)-6-(4-oxo-3,4-dihydrophthalazin-1-yl)spiro[3.3]heptan-2-yl)-8-(trifluoro-methyl)imidazo[1,2-a]pyridine-3-carboxamide]
Second: [H][C@]1(c2n[nH]c(=O)c3ccccc32)C[C@]2(C[C@@H](NC(=O)c3cnc4ccc(C(F)(F)F)cn34)C2)C1 (stereo partly drawn) [Example 390, N-((aR)-6-(4-oxo-3,4-dihydrophthalazin-1-yl)spiro[3.3]heptan-2-yl)-6-(trifluoro-methyl)imidazo[1,2-a]pyridine-3-carboxamide]
The IC50 of the first is lower: 2.01 to 5 nM for the first, 5.1 to 15 nM for the second.

[H][C@]1(c2n[nH]c(=O)c3ccccc32)C[C@]2(C[C@@H](NC(=O)c3cnc4cc(-c5ccccc5)ccn34)C2)C1 (stereo partly drawn) [Example 383, N-((aR)-6-(4-oxo-3,4-dihydrophthalazin-1-yl)spiro[3.3]heptan-2-yl)-7-phenylimidazo[1,2-a]pyridine-3-carboxamide] and [H][C@]1(c2n[nH]c(=O)c3ccccc32)C[C@]2(C[C@@H](NC(=O)c3cnc4cc(OCc5ccccc5)ccn34)C2)C1 (stereo partly drawn) [Example 384, 7-(benzyloxy)-N-((aR)-6-(4-oxo-3,4-dihydrophthalazin-1-yl)spiro[3.3]heptan-2-yl)imidazo[1,2-a]pyridine-3-carboxamide] fall in the same range of IC50: 0.2 to 2 nM for the first, 0.2 to 2 nM for the second.

First: [H][C@]1(c2n[nH]c(=O)c3ccccc32)C[C@]2(C[C@@H](NC(=O)c3cnc4c(Cl)c(C)ccn34)C2)C1 (stereo partly drawn) [Example 386, 8-chloro-7-methyl-N-((aR)-6-(4-oxo-3,4-dihydro-phthalazin-1-yl)spiro[3.3]heptan-2-yl)imidazo[1,2-a]pyridine-3-carboxamide]
Second: [H][C@]1(c2n[nH]c(=O)c3ccccc32)C[C@]2(C[C@@H](NC(=O)c3cnc4cc(N5CCC(F)(F)C5)ccn34)C2)C1 (stereo partly drawn) [Example 392, 7-(3,3-difluoropyrrolidin-1-yl)-N-((aR)-6-(4-oxo-3,4-dihydrophthalazin-1-yl)spiro[3.3]heptan-2-yl)imidazo[1,2-a]pyridine-3 carboxamide]
The IC50 of the first is higher: 2.01 to 5 nM for the first, 0.2 to 2 nM for the second.

Compared with [H][C@]1(c2n[nH]c(=O)c3ccccc32)C[C@]2(C[C@@H](NC(=O)c3nc(C(C)C)n4c3CCCC4)C2)C1 (stereo partly drawn) [Example 388, 3-isopropyl-N-((aR)-6-(4-oxo-3,4-dihydrophthalazin-1-yl)spiro[3.3]heptan-2-yl)-5,6,7,8-tetrahydro-imidazo[1,5-a]pyridine-1-carboxamide], [H][C@]1(c2n[nH]c(=O)c3ccccc32)C[C@]2(C[C@@H](NC(=O)c3cnc4cc(N5CCC(F)(F)CC5)ccn34)C2)C1 (stereo partly drawn) [Example 391, 7-(4,4-difluoropiperidin-1-yl)-N-((aR)-6-(4-oxo-3,4-dihydrophthalazin-1-yl)spiro[3.3]heptan-2-yl)imidazo[1,2-a]pyridine-3 carboxamide] is lower in IC50: 2.01 to 5 nM for the first, 0.2 to 2 nM for the second. The second is the more potent here.
